ChEMBL document CHEMBL3734719, “Discovery of highly potent triazoleantifungal agents with piperidine-oxadiazole side chains” (2015)
≈ marks a conversion by molar mass, not a printed value.

Key:
Format in all cases: functional
[1] = system: Candida albicans; experiment: Antifungal activity against Candida albicans after 48 hrs by spectrophotometry
[2] = system: Nannizzia gypsea; experiment: Antifungal activity against Microsporum gypseum after 48 hrs by spectrophotometry
[3] = system: Cryptococcus neoformans; experiment: Antifungal activity against Cryptococcus neoformans after 48 hrs by spectrophotometry
[4] = system: Nakaseomyces glabratus; experiment: Antifungal activity against Candida glabrata after 48 hrs by spectrophotometry
[5] = system: Aspergillus fumigatus; experiment: Antifungal activity against Aspergillus fumigatus after 48 hrs by spectrophotometry
[6] = system: Trichophyton rubrum; experiment: Antifungal activity against Trichophyton rubrum after 48 hrs by spectrophotometry
[7] = system: Candida parapsilosis; experiment: Antifungal activity against Candida parapsilosis after 48 hrs by spectrophotometry; details: Lodderomyces parapsilosis
[8] = system: Candida albicans; experiment: Antifungal activity against fluconazole-resistant Candida albicans 805 after 48 hrs by spectrophotometry; details: Candida albicans, 805, 48 h
[9] = system: Candida albicans; experiment: Antifungal activity against fluconazole-resistant Candida albicans 103 after 48 hrs by spectrophotometry; details: Candida albicans, 103, 48 h
[10] = system: Candida albicans; experiment: Antifungal activity against fluconazole-resistant Candida albicans 0710922 after 48 hrs by spectrophotometry; details: Candida albicans, 0710922, 48 h

Row | SMILES | MIC80 [1] | MIC80 [2] | MIC80 [3] | MIC80 [4] | MIC80 [5] | MIC80 [6] | MIC80 [7] | MIC50 [8] | MIC80 [8] | MIC50 [9] | MIC80 [9] | MIC50 [10] | MIC80 [10]
1 | OC(CN1CCC(c2nnc(-c3ccc(Cl)cc3)o2)CC1)(Cn1cncn1)c1ccc(F)cc1F (configuration not stated) | 0.5 µg/mL (≈ 0.998 µM) | 64 µg/mL (≈ 128 µM) | 1 µg/mL (≈ 2 µM) | 8 µg/mL (≈ 16 µM) | 8 µg/mL (≈ 16 µM) | 8 µg/mL (≈ 16 µM) | 4 µg/mL (≈ 7.99 µM) |  |  |  |  |  | 
2 | OC(CN1CCC(c2nc(-c3ccc(C(F)(F)F)cc3F)no2)CC1)(Cn1cncn1)c1ccc(F)cc1F (configuration not stated) | 1 µg/mL (≈ 1.81 µM) | 0.5 µg/mL (≈ 0.905 µM) | 2 µg/mL (≈ 3.62 µM) | 4 µg/mL (≈ 7.24 µM) | 4 µg/mL (≈ 7.24 µM) | 1 µg/mL (≈ 1.81 µM) | 2 µg/mL (≈ 3.62 µM) |  |  |  |  |  | 
3 | OC(CN1CCC(c2nnc(-c3ccc(F)cc3)o2)CC1)(Cn1cncn1)c1ccc(F)cc1F (configuration not stated) | 0.063 µg/mL (≈ 0.13 µM) | 2 µg/mL (≈ 4.13 µM) | ≤ 0.125 µg/mL | 1 µg/mL (≈ 2.06 µM) | 1 µg/mL (≈ 2.06 µM) | 2 µg/mL (≈ 4.13 µM) | 0.5 µg/mL (≈ 1.03 µM) |  |  |  |  |  | 
4 | COc1ccc(-c2nnc(C3CCN(CC(O)(Cn4cncn4)c4ccc(F)cc4F)CC3)o2)cc1 (configuration not stated) | 0.063 µg/mL (≈ 0.127 µM) | 1 µg/mL (≈ 2.01 µM) | 0.5 µg/mL (≈ 1.01 µM) | 2 µg/mL (≈ 4.03 µM) | 2 µg/mL (≈ 4.03 µM) | 1 µg/mL (≈ 2.01 µM) | 1 µg/mL (≈ 2.01 µM) |  |  |  |  |  | 
5 | OC(CN1CCC(c2nnc(-c3cccc4ccccc34)o2)CC1)(Cn1cncn1)c1ccc(F)cc1F (configuration not stated) | 1 µg/mL (≈ 1.94 µM) | 8 µg/mL (≈ 15.5 µM) | 4 µg/mL (≈ 7.74 µM) | 8 µg/mL (≈ 15.5 µM) | 8 µg/mL (≈ 15.5 µM) | 4 µg/mL (≈ 7.74 µM) | 8 µg/mL (≈ 15.5 µM) |  |  |  |  |  | 
6 | OC(CN1CCC(c2nc(-c3ccco3)no2)CC1)(Cn1cncn1)c1ccc(F)cc1F (configuration not stated) | 0.063 µg/mL (≈ 0.138 µM) | 2 µg/mL (≈ 4.38 µM) | 0.5 µg/mL (≈ 1.1 µM) | 1 µg/mL (≈ 2.19 µM) | 1 µg/mL (≈ 2.19 µM) | 2 µg/mL (≈ 4.38 µM) | 1 µg/mL (≈ 2.19 µM) |  |  |  |  |  | 
7 | OC(CN1CCC(c2nnc(-c3ccncc3)o2)CC1)(Cn1cncn1)c1ccc(F)cc1F (configuration not stated) | 2 µg/mL (≈ 4.28 µM) | 4 µg/mL (≈ 8.56 µM) | 4 µg/mL (≈ 8.56 µM) | 16 µg/mL (≈ 34.2 µM) | 16 µg/mL (≈ 34.2 µM) | 32 µg/mL (≈ 68.5 µM) | 16 µg/mL (≈ 34.2 µM) |  |  |  |  |  | 
8 | Cc1ccccc1-c1nnc(C2CCN(CC(O)(Cn3cncn3)c3ccc(F)cc3F)CC2)o1 (configuration not stated) | 0.125 µg/mL (≈ 0.26 µM) | 16 µg/mL (≈ 33.3 µM) | 4 µg/mL (≈ 8.32 µM) | 8 µg/mL (≈ 16.6 µM) | 8 µg/mL (≈ 16.6 µM) | 16 µg/mL (≈ 33.3 µM) | 4 µg/mL (≈ 8.32 µM) |  |  |  |  |  | 
9 | O=[N+]([O-])c1ccc(-c2nnc(C3CCN(CC(O)(Cn4cncn4)c4ccc(F)cc4F)CC3)o2)cc1 (configuration not stated) | 0.25 µg/mL (≈ 0.489 µM) | 2 µg/mL (≈ 3.91 µM) | 1 µg/mL (≈ 1.96 µM) | 4 µg/mL (≈ 7.82 µM) | 4 µg/mL (≈ 7.82 µM) | 2 µg/mL (≈ 3.91 µM) | 2 µg/mL (≈ 3.91 µM) |  |  |  |  |  | 
10 | OC(Cn1cncn1)(Cn1cncn1)c1ccc(F)cc1F [FLUCONAZOLE] | 0.25 µg/mL (≈ 0.816 µM) | 32 µg/mL (≈ 104 µM) | 0.25 µg/mL (≈ 0.816 µM) | 4 µg/mL (≈ 13.1 µM) | 4 µg/mL (≈ 13.1 µM) | 2 µg/mL (≈ 6.53 µM) | 2 µg/mL (≈ 6.53 µM) | 256 µg/mL (≈ 836 µM) | > 1020 µg/mL | 256 µg/mL (≈ 836 µM) | > 1020 µg/mL | 512 µg/mL (≈ 1670 µM) | > 1020 µg/mL
11 | OC(CN1CCC(c2nc(-c3ccc(F)cc3)no2)CC1)(Cn1cncn1)c1ccc(F)cc1F (configuration not stated) | 0.5 µg/mL (≈ 1.03 µM) | 1 µg/mL (≈ 2.06 µM) | 1 µg/mL (≈ 2.06 µM) | 2 µg/mL (≈ 4.13 µM) | 2 µg/mL (≈ 4.13 µM) | 4 µg/mL (≈ 8.26 µM) | 2 µg/mL (≈ 4.13 µM) |  |  |  |  |  | 
12 | OC(CN1CCC(c2nnc(-c3cccnc3)o2)CC1)(Cn1cncn1)c1ccc(F)cc1F (configuration not stated) | 0.125 µg/mL (≈ 0.267 µM) | 4 µg/mL (≈ 8.56 µM) | 0.5 µg/mL (≈ 1.07 µM) | 4 µg/mL (≈ 8.56 µM) | 4 µg/mL (≈ 8.56 µM) | 4 µg/mL (≈ 8.56 µM) | 1 µg/mL (≈ 2.14 µM) |  |  |  |  |  | 
13 | OC(CN1CCC(c2nnc(-c3ccco3)o2)CC1)(Cn1cncn1)c1ccc(F)cc1F (configuration not stated) | 0.125 µg/mL (≈ 0.274 µM) | 4 µg/mL (≈ 8.76 µM) | ≤ 0.125 µg/mL | 0.5 µg/mL (≈ 1.1 µM) | 0.5 µg/mL (≈ 1.1 µM) | 2 µg/mL (≈ 4.38 µM) | 0.5 µg/mL (≈ 1.1 µM) |  |  |  |  |  | 
